Assay results taken from ChEMBL document CHEMBL1909046, “DrugMatrix in vitro pharmacology data”.

How the values were obtained:
[1] = target: T1, Muscarinic acetylcholine receptor M5 (Homo sapiens, UniProt P08912); format: cell membranes, CHO-K1, Membrane; settings: cho-k1; note: in other assays of this panel Not Active means under 50% inhibition at 10 µM
T1 sequence (P08912 whole entry): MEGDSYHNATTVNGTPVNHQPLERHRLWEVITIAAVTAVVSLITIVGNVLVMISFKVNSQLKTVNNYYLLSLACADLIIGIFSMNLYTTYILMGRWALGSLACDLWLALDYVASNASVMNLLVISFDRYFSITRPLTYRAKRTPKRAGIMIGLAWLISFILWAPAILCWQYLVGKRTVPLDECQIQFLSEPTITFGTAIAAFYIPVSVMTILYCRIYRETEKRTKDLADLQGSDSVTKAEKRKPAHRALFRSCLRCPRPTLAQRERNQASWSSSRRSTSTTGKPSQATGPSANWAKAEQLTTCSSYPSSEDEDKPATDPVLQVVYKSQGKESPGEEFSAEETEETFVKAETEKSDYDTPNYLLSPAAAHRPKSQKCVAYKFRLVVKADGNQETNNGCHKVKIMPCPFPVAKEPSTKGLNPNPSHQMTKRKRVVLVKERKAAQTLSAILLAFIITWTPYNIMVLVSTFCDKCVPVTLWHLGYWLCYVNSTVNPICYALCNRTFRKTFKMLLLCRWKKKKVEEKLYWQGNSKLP

Cytochrome P450 2C19 = Cytochrome P450 2C19 (Homo sapiens, UniProt P33261); settings: bti-tn-5b1-4; note: in other assays of this panel Not Active means under 50% inhibition at 10 µM
Estrogen receptor beta = Estrogen receptor beta (Homo sapiens, UniProt Q92731); settings: sf9; note: in other assays of this panel Not Active means under 50% inhibition at 10 µM
[2] = DRUGMATRIX: Purinergic P2X radioligand binding (ligand: [3H] alpha, beta-Methylene-ATP); format: cell membranes, Oryctolagus cuniculus, New Zealand albino, Urinary bladder, Membrane; settings: Not Active = under 50% inhibition at 10 µM
[3] = target: T2, Muscarinic acetylcholine receptor M2 (Homo sapiens, UniProt P08172); format: cell membranes, CHO-K1, Membrane; settings: cho-k1; note: in other assays of this panel Not Active means under 50% inhibition at 10 µM
T2 sequence (P08172 whole entry): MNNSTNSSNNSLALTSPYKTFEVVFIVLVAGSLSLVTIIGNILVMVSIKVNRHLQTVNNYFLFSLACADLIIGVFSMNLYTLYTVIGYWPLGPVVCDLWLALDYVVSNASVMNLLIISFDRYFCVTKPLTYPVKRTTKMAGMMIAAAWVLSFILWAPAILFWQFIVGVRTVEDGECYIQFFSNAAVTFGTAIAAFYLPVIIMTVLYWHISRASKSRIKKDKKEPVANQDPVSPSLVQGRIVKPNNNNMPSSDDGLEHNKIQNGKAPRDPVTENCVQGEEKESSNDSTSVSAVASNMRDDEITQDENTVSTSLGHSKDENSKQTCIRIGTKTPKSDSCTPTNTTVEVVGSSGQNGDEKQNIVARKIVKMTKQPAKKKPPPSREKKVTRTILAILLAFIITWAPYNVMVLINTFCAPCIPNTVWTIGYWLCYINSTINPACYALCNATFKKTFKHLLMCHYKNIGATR

[4] = target: T3, Alpha-1B adrenergic receptor (Rattus norvegicus, UniProt P15823); test: DRUGMATRIX: Alpha-1B adrenergic receptor radioligand binding (ligand: prazosin); format: cell membranes, Wistar, Liver, Membrane; settings: Not Active = under 50% inhibition at 10 µM
T3 sequence (P15823 whole entry): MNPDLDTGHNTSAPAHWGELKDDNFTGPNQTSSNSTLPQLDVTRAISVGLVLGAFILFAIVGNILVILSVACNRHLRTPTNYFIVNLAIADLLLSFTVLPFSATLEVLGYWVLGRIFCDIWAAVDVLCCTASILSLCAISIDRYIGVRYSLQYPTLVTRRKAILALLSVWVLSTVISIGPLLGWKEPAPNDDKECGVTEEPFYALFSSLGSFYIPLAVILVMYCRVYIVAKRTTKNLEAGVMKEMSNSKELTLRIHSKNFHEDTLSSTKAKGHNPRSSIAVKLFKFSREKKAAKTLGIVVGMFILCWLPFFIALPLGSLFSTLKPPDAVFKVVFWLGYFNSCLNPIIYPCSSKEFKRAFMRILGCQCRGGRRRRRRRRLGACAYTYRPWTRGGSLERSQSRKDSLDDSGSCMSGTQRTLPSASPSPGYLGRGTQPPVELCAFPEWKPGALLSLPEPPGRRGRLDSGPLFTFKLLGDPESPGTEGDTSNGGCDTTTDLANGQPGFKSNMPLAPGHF

Melanocortin receptor 4 = Melanocortin receptor 4 (Homo sapiens, UniProt P32245); format: cell membranes, HEK293, Membrane; settings: hek293; note: in other assays of this panel Not Active means under 50% inhibition at 10 µM
Chain of Melanocortin receptor 4 (P32245 whole entry): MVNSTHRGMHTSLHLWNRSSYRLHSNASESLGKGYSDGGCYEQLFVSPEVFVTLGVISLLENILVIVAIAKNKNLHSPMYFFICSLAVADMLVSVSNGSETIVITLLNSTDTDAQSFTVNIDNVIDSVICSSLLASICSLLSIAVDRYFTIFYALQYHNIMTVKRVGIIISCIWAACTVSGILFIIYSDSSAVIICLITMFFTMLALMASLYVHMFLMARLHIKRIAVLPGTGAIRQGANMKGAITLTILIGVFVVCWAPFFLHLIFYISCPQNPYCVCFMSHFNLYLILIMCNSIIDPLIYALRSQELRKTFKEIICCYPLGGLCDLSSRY

Chain of Cytochrome P450 2C19 (P33261 whole entry): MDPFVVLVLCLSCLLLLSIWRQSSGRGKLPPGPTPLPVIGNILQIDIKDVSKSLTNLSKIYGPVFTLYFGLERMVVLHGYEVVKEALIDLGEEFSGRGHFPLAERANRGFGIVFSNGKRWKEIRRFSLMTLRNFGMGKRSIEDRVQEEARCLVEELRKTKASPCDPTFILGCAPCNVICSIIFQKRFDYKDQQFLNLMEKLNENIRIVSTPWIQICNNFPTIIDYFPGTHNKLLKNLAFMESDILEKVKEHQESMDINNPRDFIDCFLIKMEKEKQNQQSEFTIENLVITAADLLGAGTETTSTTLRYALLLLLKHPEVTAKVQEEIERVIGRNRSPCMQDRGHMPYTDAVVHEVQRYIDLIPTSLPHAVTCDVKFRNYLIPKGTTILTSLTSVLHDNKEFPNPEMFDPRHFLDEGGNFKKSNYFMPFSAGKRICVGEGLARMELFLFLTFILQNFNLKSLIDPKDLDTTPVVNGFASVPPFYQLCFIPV
Chain of Estrogen receptor beta (Q92731 whole entry): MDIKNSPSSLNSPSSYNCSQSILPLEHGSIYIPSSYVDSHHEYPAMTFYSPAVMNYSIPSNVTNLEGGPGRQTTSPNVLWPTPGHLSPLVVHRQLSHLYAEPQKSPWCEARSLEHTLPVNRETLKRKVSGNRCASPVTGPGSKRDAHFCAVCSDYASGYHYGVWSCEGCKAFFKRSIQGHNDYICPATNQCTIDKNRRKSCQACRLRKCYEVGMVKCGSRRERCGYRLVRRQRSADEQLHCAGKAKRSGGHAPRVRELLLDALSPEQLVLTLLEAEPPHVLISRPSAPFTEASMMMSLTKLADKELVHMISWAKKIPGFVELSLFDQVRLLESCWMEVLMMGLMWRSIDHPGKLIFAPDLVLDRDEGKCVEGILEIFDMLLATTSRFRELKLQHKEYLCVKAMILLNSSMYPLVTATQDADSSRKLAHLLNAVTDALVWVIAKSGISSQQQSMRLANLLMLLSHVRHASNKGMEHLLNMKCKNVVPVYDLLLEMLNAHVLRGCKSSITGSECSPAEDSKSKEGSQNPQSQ

COc1c(C)c2c(c(O)c1C/C=C(\C)CCC(=O)O)C(=O)OC2 [MYCOPHENOLIC ACID]
Not Active: IC50 [1] | IC50 (Cytochrome P450 2C19) | Ki (Cytochrome P450 2C19) | IC50 (Estrogen receptor beta) | IC50 [2] | Ki [2] | IC50 [3] | IC50 [4] | IC50 (Melanocortin receptor 4)

CCCOc1ccccc1-c1nc2nn[nH]c2c(=O)[nH]1 [ZAPRINAST]
Not Active: IC50 [1] | IC50 (Cytochrome P450 2C19) | Ki (Cytochrome P450 2C19) | IC50 (Estrogen receptor beta) | IC50 [2] | Ki [2] | IC50 [3] | IC50 [4] | IC50 (Melanocortin receptor 4)

Nc1nc2nc[nH]c2c(=S)[nH]1 [THIOGUANINE]
Not Active: IC50 [1] | IC50 (Cytochrome P450 2C19) | Ki (Cytochrome P450 2C19) | IC50 (Estrogen receptor beta) | IC50 [2] | Ki [2] | IC50 [3] | IC50 [4] | IC50 (Melanocortin receptor 4)

Cc1c(C)c2c(c(C)c1O)CCC(C)(COc1ccc(CC3SC(=O)NC3=O)cc1)O2 (stereo not drawn) [TROGLITAZONE]
Not Active: IC50 [1] | IC50 (Cytochrome P450 2C19) | Ki (Cytochrome P450 2C19) | IC50 (Estrogen receptor beta) | IC50 [2] | Ki [2] | IC50 [3] | IC50 [4] | IC50 (Melanocortin receptor 4)

COc1nc(C)nc(Cl)c1NC1=NCCN1 [MOXONIDINE]
Not Active: IC50 [1] | IC50 (Cytochrome P450 2C19) | Ki (Cytochrome P450 2C19) | IC50 (Estrogen receptor beta) | IC50 [2] | Ki [2] | IC50 [3] | IC50 [4] | IC50 (Melanocortin receptor 4)

OCCN(CCO)c1nc(N2CCCCC2)c2nc(N(CCO)CCO)nc(N3CCCCC3)c2n1 [DIPYRIDAMOLE]
Not Active: IC50 [1] | IC50 (Cytochrome P450 2C19) | Ki (Cytochrome P450 2C19) | IC50 (Estrogen receptor beta) | IC50 [2] | Ki [2] | IC50 [3] | IC50 [4] | IC50 (Melanocortin receptor 4)

O=NN(CCCl)C(=O)NC1CCCCC1 [LOMUSTINE]
Not Active: IC50 [1] | IC50 (Cytochrome P450 2C19) | Ki (Cytochrome P450 2C19) | IC50 (Estrogen receptor beta) | IC50 [2] | Ki [2] | IC50 [3] | IC50 [4] | IC50 (Melanocortin receptor 4)

O=c1ncn2nc(Sc3ccc(F)cc3F)ccc2c1-c1c(Cl)cccc1Cl [NEFLAMAPIMOD]
Not Active: IC50 [1] | IC50 (Cytochrome P450 2C19) | Ki (Cytochrome P450 2C19) | IC50 (Estrogen receptor beta) | IC50 [2] | Ki [2] | IC50 [3] | IC50 [4] | IC50 (Melanocortin receptor 4)

CSc1ccc(/C=C2/C(C)=C(CC(=O)O)c3cc(F)ccc32)cc1 [SULINDAC SULFIDE]
Not Active: IC50 [1] | IC50 (Cytochrome P450 2C19) | Ki (Cytochrome P450 2C19) | IC50 (Estrogen receptor beta) | IC50 [2] | Ki [2] | IC50 [3] | IC50 [4] | IC50 (Melanocortin receptor 4)

Cc1noc(NS(=O)(=O)c2ccc(N)cc2)c1C [SULFISOXAZOLE]
Not Active: IC50 [1] | IC50 (Cytochrome P450 2C19) | Ki (Cytochrome P450 2C19) | IC50 (Estrogen receptor beta) | IC50 [2] | Ki [2] | IC50 [3] | IC50 [4] | IC50 (Melanocortin receptor 4)

N[C@@H](Cc1ccc(O)c(O)c1)C(=O)O [LEVODOPA]
Not Active: IC50 [1] | IC50 (Cytochrome P450 2C19) | Ki (Cytochrome P450 2C19) | IC50 (Estrogen receptor beta) | IC50 [2] | Ki [2] | IC50 [3] | IC50 [4] | IC50 (Melanocortin receptor 4)

NS(=O)(=O)c1cc2c(cc1Cl)NC(C(Cl)Cl)NS2(=O)=O (stereo not drawn) [TRICHLORMETHIAZIDE]
Not Active: IC50 [1] | IC50 (Cytochrome P450 2C19) | Ki (Cytochrome P450 2C19) | IC50 (Estrogen receptor beta) | IC50 [2] | Ki [2] | IC50 [3] | IC50 [4] | IC50 (Melanocortin receptor 4)

Nc1c2c(nc3ccccc13)CCCC2 [TACRINE]
Not Active: IC50 [1] | IC50 (Cytochrome P450 2C19) | Ki (Cytochrome P450 2C19) | IC50 (Estrogen receptor beta) | IC50 [2] | Ki [2] | IC50 [3] | IC50 [4] | IC50 (Melanocortin receptor 4)

NC[C@H]1CC[C@H](C(=O)O)CC1 [TRANEXAMIC ACID]
Not Active: IC50 [1] | IC50 (Cytochrome P450 2C19) | Ki (Cytochrome P450 2C19) | IC50 (Estrogen receptor beta) | IC50 [2] | Ki [2] | IC50 [3] | IC50 [4] | IC50 (Melanocortin receptor 4)

c1ccc([C@H]2CN3CCSC3=N2)cc1 [LEVAMISOLE]
Not Active: IC50 [1] | IC50 (Cytochrome P450 2C19) | Ki (Cytochrome P450 2C19) | IC50 (Estrogen receptor beta) | IC50 [2] | Ki [2] | IC50 [3] | IC50 [4] | IC50 (Melanocortin receptor 4)

SODIUM NITROPRUSSIDE
Not Active: IC50 [1] | Ki [1] | IC50 (Cytochrome P450 2C19) | Ki (Cytochrome P450 2C19) | IC50 (Estrogen receptor beta) | Ki (Estrogen receptor beta) | IC50 [2] | Ki [2] | IC50 [3] | Ki [3] | IC50 [4] | Ki [4] | IC50 (Melanocortin receptor 4) | Ki (Melanocortin receptor 4)

CO[C@H]1/C=C/O[C@@]2(C)Oc3c(C)c(O)c4c(O)c(c(/C=N/N5CCN(C)CC5)c(O)c4c3C2=O)NC(=O)/C(C)=C\C=C\[C@H](C)[C@H](O)[C@@H](C)[C@@H](O)[C@@H](C)[C@H](OC(C)=O)[C@@H]1C [RIFAMPIN]
Not Active: IC50 [1] | IC50 (Cytochrome P450 2C19) | Ki (Cytochrome P450 2C19) | IC50 (Estrogen receptor beta) | IC50 [2] | Ki [2] | IC50 [3] | IC50 [4] | IC50 (Melanocortin receptor 4)
